Source: patent EP0761658A1, “Azole-phenyl urea derivatives as ACAT inhibitors and their production” (NIHON NOHYAKU CO., LTD., priority 1995, dated 1997)

What was measured:
[1] = system: rats fed on a high-cholesterol diet; test: Serum cholesterol lowering activity in rats fed on a high-cholesterol diet; assay type: in vivo, Male Sprague-Dawley rats; conditions: Rattus norvegicus, 96 h; total serum cholesterol; 30 mg per kg of body weight per day for 4 days, suspended in 0.5% carboxymethyl cellulose; blood 24 hours after last administration; read-out: Reduction rate (%)
Description: Male Sprague-Dawley rats of 6-week-old were divided into three groups. The first group (normal group) was fed an ordinary diet for 4 days. The second group (control group) was fed a high cholesterol diet (containing 1.0% cholesterol, 1.0% cholic acid and 8.5% coconut oil) for 4 days. The third group (treated group) was fed a high cholesterol diet and was treated with a compound for 4 days.
Simultaneously with the beginning of the above feeding, the compound was suspended in a 0.5% carboxymethyl cellulose solution and administered to the treated group, in a dose of 30 mg (in terms of the compound) per kg of body weight per day for 4 days. A 0.5% carboxymethyl cellulose solution was also administered to the normal group and the control group in the same manner as above.
After 24 hours of the last administration, blood was collected and the cholesterol concentration in serum was measured by an enzymatic method. The reduction rate of the total serum cholesterol concentration was calculated from values obtained for the three groups by the following equation. Choresterol reduction rate (%) =((A) - (B))/((A) - (C))x 100 [formula] wherein A: the serum cholesterol concentration of the control group. B: the serum cholesterol concentration of the treated group. C: the serum cholesterol concentration of the normal group.

[2] = system: acyl-CoA:cholesterol acyltransferase (ACAT); test: Inhibitory activity on acyl-CoA:cholesterol acyltransferase (ACAT), microsomal fraction of intestinal mucosa, [1-14C]oleyl-CoA incorporation into cholesterol esters; assay type: biochemical, white rabbit; conditions: rabbit intestinal mucosa microsomes
Description: The enzyme used in the test was prepared according to the method of Heider et al. [J. Lipid Res. 24, 1127 (1983)]. A white rabbit was killed by blood-letting under anesthesia, after which its intestinal mucosa was collected and then homogenized, and microsomal fraction was obtained by stepwise centrifugation. The microsomal fraction was suspended in 0.154 M phosphate buffer (pH 7.4) and stored at -80°C until use.
ACAT activity was determined by a modification of the method of Helgerud et al. [J. Lipid Res. 22, 271 (1981)] by measuring radioactivity incorporated into cholesterol esters from [1-^14C]oleyl-CoA, as an indication. As to the ACAT-inhibitory activity of each compound to be tested, the inhibition rate was calculated by the following equation. Inhibition rate (%) =([ACAT activity of control group which was given solvent]-[ACAT activity of group treated with compound to be tested])/([ACAT activity of control group which was given solvent])x 100 [formula]

[3] = compound concentration 1 (head prints '1 | 0.01 µm')

Structure (SMILES) | Inhibition rate % ([2]; compound concentration 0.01 µm) | Inhibition rate % [2, 3] | inhibition in vivo at 30 mg/kg [1]
Cc1nc(-c2ccccc2C)c(NC(=O)Nc2c(C(C)C)cccc2C(C)C)s1 [Compound 8, N-(2,6-DiisopropylphenyI)-N'-[2-methyl-4-(2-methylphenyl)thiazol-5-yl]urea] | – | 99.1% | –
CC(C)c1cccc(C(C)C)c1NC(=O)Nc1nc(N2CCOCC2)sc1-c1ccccc1Cl [Compound 24, N-[5-(2-Chlorophenyl)-2-(N-morpholino)thiazol-4-yl]-N'-(2,6-diisopropylphenyl)urea] | – | 97.9% | –
CCCCCc1nc(-c2ccccc2Cl)c(NC(=O)Nc2c(C(C)C)cccc2C(C)C)s1 [Compound 12, N-[4-(2-Chlorophenyl)-2-n-pentylthiazol-5-yl]-N'-(2,6-diisopropylphenyl)urea] | – | 96.2% | –
CCc1nc(-c2ccccc2Cl)c(NC(=O)Nc2c(C(C)C)cccc2C(C)C)s1 [Compound 11, N-[4-(2-Chlorophenyl)-2-ethylthiazol-5-yl]-N'-(2,6-diisopropylphenyl)urea] | 42.9% | 99.2% | 46.2%
CC(C)c1cccc(C(C)C)c1NC(=O)Nc1sc(N2CCOCC2)nc1-c1ccccc1Cl [Compound 21, N-[4-(2-Chlorophenyl)-2-(N-morpholino)thiazol-5-yl]-N'-(2,6-diisopropylphenyl)urea] | – | 99.8% | –
CC(C)c1cccc(C(C)C)c1NC(=O)Nc1sc(N2CCCCC2)nc1-c1ccccc1Cl [Compound 19, N-[4-(2-Chlorophenyl)-2-(N-piperidino)thiazol-5-yl]-N'-(2,6-diisopropylphenyl)urea] | – | 99.9% | –
CCc1cccc(CC)c1NC(=O)Nc1sc(N2CCCCC2)nc1-c1ccccc1 [Compound 17, N-(2,6-Diethylphenyl)-N'-[4-phenyl-2-(N-piperidino)thiazol-5-yl)urea] | – | 99.8% | –
CC(C)c1cccc(C(C)C)c1NC(=O)Nc1sc(C2CCCCC2)nc1-c1ccccc1Cl [Compound 13, N-[4-(2-Chlorophenyl)-2-cyclohexylthiazol-5-yl]-N'-(2,6-diisopropylphenyl)urea] | – | 72.7% | –
Cc1nc(-c2ccccc2Cl)c(NC(=O)Nc2ccc(F)cc2F)s1 [Compound 6, N-[4-(2-Chlorophenyl)-2-methylthiazol-5-yl]-N'-(2,4-difluorophenyl)urea] | – | 46.1% | –
CC(C)c1cccc(C(C)C)c1NC(=O)Nc1c(-c2ccccc2Cl)nc(-c2ccccc2)n1Cc1ccccc1 [Compound 36, N-[1-Benzyl-4-(2-chlorophenyl)-2-phenylimidazol-5-yl]-N'-(2,6-diisopropylphenyl)urea] | – | 79.5% | –
Cc1nc(-c2ccccc2)c(NC(=O)Nc2c(C(C)C)cccc2C(C)C)s1 [Compound 3, N-(2,6-Diisopropylphenyl)-N'-(2-methyl-4-phenylthiazol-5-yl)urea] | – | 92.1% | –
CCc1cccc(CC)c1NC(=O)Nc1nc(-c2ccccc2)sc1-c1ccccc1C [Compound 28, N-(2,6-Diethylphenyl)-N'-[5-(2-methylphenyl)-2-phenylthiazol-4-yl]urea] | 64.1% | – | 87.8%
Cc1nc(NC(=O)Nc2c(C(C)C)cccc2C(C)C)c(-c2ccccc2C)s1 [Compound 29, N-(2,6-Diisopropylphenyl)-N'-[2-methyl-5-(2-methylphenyl)thiazol-4-yl]urea] | 90.2% | – | 46.1%
Cc1nc(-c2ccccc2C)c(NC(=O)Nc2ccc(F)cc2F)s1 [Compound 9, N-(2,4-Difluorophenyl)-N'-[2-methyl-4-(2-methylphenyl)thiazol-5-yl]urea] | – | 49.4% | –
CC(C)c1cccc(C(C)C)c1NC(=O)Nc1sc(N(C)C)nc1-c1ccccc1Cl [Compound 15, N-[4-(2-Chlorophenyl)-2-dimethylaminothiazol-5-yl]-N'-(2,6-diisopropylphenyl)urea] | – | 99.2% | –
Cc1nc(-c2ccccc2Cl)c(NC(=O)Nc2c(C(C)C)cccc2C(C)C)s1 [Compound 4, N-[4-(2-Chlorophenyl)-2-methylthiazol-5-yl]-N'-(2,6-diisopropylphenyl)urea] | 63.9% | – | –
CCc1cccc(CC)c1NC(=O)Nc1sc(C)nc1-c1ccccc1Cl [Compound 5, N-[4-(2-Chlorophenyl)-2-methylthiazol-5-yl]-N'-(2,6-diethylphenyl)urea] | – | 97.8% | –
CCc1cccc(CC)c1NC(=O)Nc1nc(C)sc1-c1ccccc1Cl [Compound 26, N-[5-(2-Chlorophenyl)-2-methylthiazol-4-yl]-N'-(2,6-diethylphenyl)urea] | 51.4% | – | –

More lines, main results first:

Inhibition rate % ([2]; compound concentration 0.01 µm) | Inhibition rate % [2, 3] | Structure (SMILES) | inhibition in vivo at 30 mg/kg [1]
76.8% | – | CSc1ccccc1-c1sc(-c2ccccc2)nc1NC(=O)Nc1c(C(C)C)cccc1C(C)C [Compound 30, N-(2,6-Diisopropylphenyl)-N'-[5-(2-methylthiophenyl)-2-phenylthiazol-4-yl]urea] | 75.7%
86.5% | – | Cc1ccccc1-c1sc(-c2ccccc2)nc1NC(=O)Nc1c(C(C)C)cccc1C(C)C [Compound 27, N-(2,6-Diisopropylphenyl)-N'-[5-(2-methylphenyl)-2-phenylthiazol-4-yl]urea] | 61.7%
– | 77.9% | CC(C)c1cccc(C(C)C)c1NC(=O)Nc1nc(-c2ccccc2)[nH]c1-c1ccccc1Cl [Compound 45, N-[4(5)-(2-Chlorophenyl)-2-phenylimidazol-5(4)-yl]-N'-(2,6-diisopropylphenyl)urea] | –
– | 99.4% | CC(C)c1cccc(C(C)C)c1NC(=O)Nc1nc(-c2ccccc2)n(COCC[Si](C)(C)C)c1-c1ccccc1Cl [Compound 40, N-[5-(2-Chlorophenyl)-2-phenyl-1-(2-trimethylsilyl)ethoxymethylimidazol-4-yl]-N'-(2,6-diisopropylphenyl)urea] | –
59.4% | 99.6% | CC(C)c1cccc(C(C)C)c1NC(=O)Nc1nc(-c2ccccc2)sc1-c1ccccc1Cl [Compound 23, N-[5-(2-Chlorophenyl)-2-phenylthiazol-4-yl]-N'-(2,6-diisopropylphenyl)urea] | 108%
55.2% | 99.8% | Cc1ccccc1-c1nc(-c2ccccc2)sc1NC(=O)Nc1c(C(C)C)cccc1C(C)C [Compound 2, N-(2,6-Diisopropylphenyl)-N'-[4-(2-methylphenyl)-2-phenylthiazol-5-yl]urea] | 85.7%
80.4% | – | CC(C)c1cccc(C(C)C)c1NC(=O)Nc1nc(-c2ccccc2)n(Cc2ccccc2)c1-c1ccccc1Cl [Compound 37, N-[1-Benzyl-5-(2-chlorophenyl)-2-phenylimidazol-4-yl]-N'-(2,6-diisopropylphenyl)urea] | 59%
– | 99.2% | COc1ccc(Cn2c(-c3ccccc3)nc(NC(=O)Nc3c(C(C)C)cccc3C(C)C)c2-c2ccccc2Cl)cc1 [Compound 44, N-[5-(2-Chlorophenyl)-1-(4-methoxybenzyl)-2-phenylimidazol-4-yl]-N'-(2,6-diisopropylphenyl)urea] | –
33.5% | 99.6% | CC(C)c1cccc(C(C)C)c1NC(=O)Nc1nc(-c2ccccc2)n(C)c1-c1ccccc1Cl [Compound 35, N-[5-(2-Chlorophenyl)-1-methyl-2-phenylimidazol-4-yl]-N'-(2,6-diisopropylphenyl)urea] | –
70.6% | – | Cc1ccccc1-c1oc(-c2ccccc2)nc1NC(=O)Nc1c(C(C)C)cccc1C(C)C [Compound 31, N-(2,6-Diisopropylphenyl)-N'-[5-(2-methylphenyl)-2-phenyloxazol-4-yl]urea] | 59.8%
38.7% | 99.9% | CC(C)c1cccc(C(C)C)c1NC(=O)Nc1sc(-c2ccccc2)nc1-c1ccccc1Cl [Compound 1, N-[4-(2-Chlorophenyl)-2-phenylthiazol-5-yl]-N'-(2,6-diisopropylphenyl)urea] | 53.8%
– | 99.2% | COCn1c(-c2ccccc2)nc(NC(=O)Nc2c(C(C)C)cccc2C(C)C)c1-c1ccccc1Cl [Compound 42, N-[5-(2-Chlorophenyl)-1-methoxymethyl-2-phenylimidazol-4-yl]-N'-(2,6-diisopropylphenyl)urea] | –
88.1% | – | Cc1nc(NC(=O)Nc2c(C(C)C)cccc2C(C)C)c(-c2ccccc2Cl)s1 [Compound 25, N-[5-(2-Chlorophenyl)-2-methylthiazol-4-yl]-N'-(2,6-diisopropylphenyl)urea] | 39.1%
